Data as given in patent US12410152B2, “Oxazole and thioazole-type cullin ring ubiquitin ligase compounds and uses thereof” (Proxygen GmbH, priority 2019, dated 2025).

test system: KBM7-Cas9 cells; assay: CRISPR/Cas9 resistance screens (genome-wide Brunello and CRL-focused sgRNA libraries); format: cell-based, human; settings: two weeks continuous drug treatment, start 4xEC50
Procedure: 293T cells seeded on 15 cm culture plates 16h before were transfected with 5 μg Brunello pooled library (Addgene #73178; 2-vector system), 2.5 μg pMD2.G (Addgene #12259), and 3.75 μg psPAX2 (Addgene #12260) using PolyFect (Qiagen) according to the manufacturer's protocol. Viral supernatant was harvested 72h after transfection and concentrated using Lenti—X-concentrator (Takara), according to the manufacturer's protocol. Concentrated viral supernatant was stored in aliquots at −80° C. and titrated to achieve a MOI of 0.2-0.3.
250 million KBM7-Cas9 cells were transduced at MOI 0.23, yielding a calculated library representation of 668 cells/sgRNA (library representation=50 million cells). For transduction, 20 μL of concentrated viral supernatant was added to 5 million cells in 1.5 mL IMDM and 8 μg/mL polybrene in 6-well plates. Plates were centrifuged at 2000 rpm for 1 h at 30° C. in a benchtop centrifuge, 0.5 mL IMDM were added and then incubated at 37° C. overnight. The next day, transduced cells were pooled and diluted. Pools were selected with 1 μg/mL puromycin for 5 days. Three independent resistance screens were performed with the library using drugs at starting concentrations of 4×EC50. Selective drug treatment was performed on 50 million cells/drug at a seeding density of 500,000 cells/mL. Every 5 days, cells were pooled, counted and re-seeded to 50 million cells in 100 mL, applying fresh drug. […]
De-multiplexed raw reads were processed to count sgRNA spacer abundance using a custom script. The first 20 bp of the trimmed reads were collected and aligned against the Brunello spacer index using Bowtie2. Spacers were counted using cut-f 3|sort|uniq -c on the aligned SAM files. […] Log 2 fold changes of drug treatment vs DMSO were calculated from normalized counts, omitting spacers with no reads in the DMSO condition. The enrichment rank of each spacer sequence was expressed as a fraction of the total number of spacers, so that the most enriched spacer is assigned a perturbation strength of 1, in accordance with the STARS algorithm. […]

| SMILES | gene enrichment in drug-tolerant populations (genome-wide CRISPR screen) |
| --- | --- |
| Cc1ccc(C(=O)N2CSCC2C(=O)N=c2[nH]cc(C)s2)o1 (stereo not drawn) [Compound T6938051] | striking enrichment in only four genes |
| O=C(CSc1nnc2c(n1)[nH]c1ccccc12)Nc1ccc(Cl)cn1 [IC020772.1] | striking enrichment in only four genes |
| O=C(CSc1nc2ccccc2[nH]1)Nc1ccc(Cl)cn1 [IC021313.2] | striking enrichment in only four genes |
